Results from article PMC10435442, “Developing multitarget coumarin based anti-breast cancer agents: synthesis and molecular modeling study” (Scientific Reports, 2023).
Values after ≈ are worked out from the molar mass of the structure shown. Values joined by “and” are separate entries in the source; they are usually repeats but may differ in a detail not shown here. Identical values can stand only once. Like-named read-outs stand apart in the source and are kept apart here.

Tests used:
in vitro = settings: human
MCF-7 = assay: MTT cytotoxicity assay, MCF-7; settings: for IC50: Homo sapiens; for anti-proliferative activity against MCF-7 (in words): SAR discussion
MDA-MB-231 = assay: MTT cytotoxicity assay, MDA-MB-231; settings: for IC50: Homo sapiens; for % viability: MDA; for anti-proliferative activity against MDA-MB-231 (in words): SAR discussion
MCF-10A = assay: MTT cytotoxicity assay, nonmalignant MCF-10A; settings: for IC50: read-out: MCF-10A IC50, MTT, nonmalignant MCF-10A;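 as to all read-outs here: MTT assay with absorbance read at 570 nm after 48 h exposure of cells to serial compound concentrations at 37 °C, testing selectivity against nonmalignant versus cancer cells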
EGFR = EGFR (Homo sapiens, UniProt P00533); assay: In vitro EGFR enzyme inhibition assay (ELISA); settings: for EGFR %inh: lab report 01-11-2021
[1] = MCF7, read-out: cytotoxicity_IC50 mcf7
[2] = MDA-MB-231, read-out: MDA-MBA-231 IC50
[3] = MDA-MB-231, read-out: cytotoxicity_IC50 MDA
[4] = MCF-10A cells (nonmalignant breast)
[5] = EGFR IC50, lab report 01-11-2021, 10 compounds

EGFR, sequence (P00533 25-1210): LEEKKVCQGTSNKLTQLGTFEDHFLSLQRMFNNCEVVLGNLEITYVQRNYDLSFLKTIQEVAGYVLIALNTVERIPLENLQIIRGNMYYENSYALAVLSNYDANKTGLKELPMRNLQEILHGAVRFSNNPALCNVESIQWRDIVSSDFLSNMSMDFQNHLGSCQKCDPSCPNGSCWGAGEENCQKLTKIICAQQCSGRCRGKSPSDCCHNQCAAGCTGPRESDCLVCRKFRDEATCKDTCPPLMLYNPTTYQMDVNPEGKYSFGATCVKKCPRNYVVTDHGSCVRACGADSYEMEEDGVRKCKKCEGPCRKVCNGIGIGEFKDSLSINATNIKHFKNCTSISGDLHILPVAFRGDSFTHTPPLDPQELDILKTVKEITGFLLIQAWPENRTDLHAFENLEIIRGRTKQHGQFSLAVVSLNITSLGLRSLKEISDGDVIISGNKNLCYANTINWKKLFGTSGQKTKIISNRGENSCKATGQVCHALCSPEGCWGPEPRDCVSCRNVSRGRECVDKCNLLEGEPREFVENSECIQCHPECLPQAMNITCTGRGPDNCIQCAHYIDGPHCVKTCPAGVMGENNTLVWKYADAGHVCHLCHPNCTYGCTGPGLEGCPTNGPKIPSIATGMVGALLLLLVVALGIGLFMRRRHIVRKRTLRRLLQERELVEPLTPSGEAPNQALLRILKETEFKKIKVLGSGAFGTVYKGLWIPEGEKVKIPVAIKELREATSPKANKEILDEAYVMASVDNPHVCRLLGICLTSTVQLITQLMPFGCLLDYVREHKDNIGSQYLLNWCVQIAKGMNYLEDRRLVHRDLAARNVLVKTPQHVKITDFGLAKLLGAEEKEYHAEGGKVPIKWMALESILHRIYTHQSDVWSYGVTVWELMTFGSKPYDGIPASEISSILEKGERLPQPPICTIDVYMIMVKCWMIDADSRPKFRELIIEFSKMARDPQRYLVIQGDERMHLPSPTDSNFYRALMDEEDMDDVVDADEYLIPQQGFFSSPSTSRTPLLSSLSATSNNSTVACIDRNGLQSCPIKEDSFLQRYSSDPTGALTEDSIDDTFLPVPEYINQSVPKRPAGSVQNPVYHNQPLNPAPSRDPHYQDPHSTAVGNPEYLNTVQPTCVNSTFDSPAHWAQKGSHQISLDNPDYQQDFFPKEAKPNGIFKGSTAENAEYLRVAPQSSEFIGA

| IC50 at 48 h (in vitro; [4]) | SMILES | IC50 (MCF-7; MCF7, read-out: MCF-7 IC50) | IC50 (MCF-7; [1]) | % viability (MCF-7; MCF7, 0.4ug) | % viability (MCF-7; MCF7, 1.6ug) | % viability (MCF-7; MCF7, 6.3ug) | % viability (MCF-7; MCF7, 25ug) | % viability (MCF-7; MCF7, 100ug) | anti-proliferative activity against MCF-7 (in words) (MCF-7) | IC50 (MDA-MB-231; [2]) | IC50 (MDA-MB-231; [3]) | % viability (MDA-MB-231; 0.4ug (log conc. -0.41)) | % viability (MDA-MB-231; 1.6ug (log conc. 0.19)) | % viability (MDA-MB-231; 6.25ug (log conc. 0.8)) | IC50 (MCF-10A) | viability at 48 h, 0.4 ug (in vitro; [4]) | viability at 48 h, 1.6 ug (in vitro; [4]) | viability at 48 h, 6.25 ug (in vitro; [4]) | viability at 48 h, 25 ug (in vitro; [4]) | viability at 48 h, 100 ug (in vitro; [4]) | other results |
| --- | --- | --- | --- | --- | --- | --- | --- | --- | --- | --- | --- | --- | --- | --- | --- | --- | --- | --- | --- | --- | --- |
| – | O=c1cc(CCl)c2ccc(O)cc2o1 [Compound 1, 4-chloromethyl-7-hydroxycoumarin] | 115 ± 1.47 µM | 24.3 ± 1.47 µg/mL | 77.743% and 77.74% | 67.269% and 67.27% | 59.663% and 59.66% | 49.002% and 49% | 41.1471% and 41.15% | devoid of activity | 354 ± 4.06 µM | 74.5 ± 4.06 µg/mL | 88.396% and 88.4% | 77.133% and 77.13% | 69.01% | 442 ± 4.53 µM | – | – | – | – | – | IC50 at 48 h (in vitro): 93 ± 4.53 µg/mL (≈ 442 µM); viability at 48 h, 0.4 ug (in vitro): 84%; viability at 48 h, 1.6 ug (in vitro): 75.6%; viability at 48 h, 6.25 ug (in vitro): 67.5%; viability at 48 h, 25 ug (in vitro): 57%; viability at 48 h, 100 ug (in vitro): 50.1%; % viability (MDA-MB-231; 25ug (log conc. 1.4)): 56.655% and 56.66%; % viability (MDA-MB-231; 100ug (log conc. 2)): 48.4642% and 48.46%; anti-proliferative activity against MDA-MB-231 (in words) (MDA-MB-231): devoid of activity; % viability (MCF-10A; MCF10a, 0.4ug (log conc. -0.41)): 84.01%; % viability (MCF-10A; MCF10a, 1.6ug (log conc. 0.19)): 75.58%; % viability (MCF-10A; MCF10a, 6.25ug (log conc. 0.8)): 67.49%; % viability (MCF-10A; MCF10a, 25ug (log conc. 1.4)): 56.99%; % viability (MCF-10A; MCF10a, 100ug (log conc. 2)): 50.09% |
| 56.6 ± 2.76 µg/mL (≈ 156 µM) | O=C(COc1ccc2c(CCl)cc(=O)oc2c1)c1ccc(Cl)cc1 [Compound 6, 4-(Chloromethyl)-7-(2-(4-chlorophenyl)-2-oxoethoxy)-2H-chromen-2-one] | 217 ± 4.77 µM | 78.7 ± 4.77 µg/mL | 87.56% | 78.06% | 71.906% | 59.463% | 45.972% | lower activity level | 56.6 ± 1.12 µM | 20.5 ± 1.12 µg/mL | 73.67% | 63.08% | 56.509% | 156 ± 2.76 µM | 78.1% | 70.4% | 62.2% | 54.8% | 46.8% | % viability (MDA-MB-231; 25ug (log conc. 1.4)): 49.4083%; % viability (MDA-MB-231; 100ug (log conc. 2)): 41.124%; anti-proliferative activity against MDA-MB-231 (in words) (MDA-MB-231): lower activity level; IC50 (EGFR; [5]): 0.154 µM; IC50 (EGFR; EGFR inhibition IC50): 0.154 ± 0.008 µM; EGFR %inh (EGFR; conc 0.01 (unit not given)): 34%; EGFR %inh (EGFR; conc 0.1 (unit not given)): 57%; EGFR %inh (EGFR; conc 1 (unit not given)): 74%; EGFR %inh (EGFR; conc 10 (unit not given)): 91%; Percentage above Reference IC50 (potency relative to erlotinib) (EGFR): 54.545% |
| 135 ± 6.56 µg/mL (≈ 301 µM) | O=C(COc1ccc2c(COC(=O)c3ccc(Cl)cc3)cc(=O)oc2c1)c1ccccc1 [Compound 9, [2-Oxo-7-(2-oxo-2-phenylethoxy)-2H-chromen-4-yl]methyl 4-chlorobenzoate] | 100 ± 2.73 µM | 45 ± 2.73 µg/mL | 77.17% | 70.74% | 62.232% | 54.2277% | 44.25% | diminished the activity | 10.4 ± 0.25 µM | 4.65 ± 0.25 µg/mL | – | – | – | 301 ± 6.56 µM | 90.6% | 79.6% | 70.3% | 61.8% | 52.3% | anti-proliferative activity against MDA-MB-231 (in words) (MDA-MB-231): poor anti-proliferative activity; IC50 (EGFR; [5]): 0.131 µM; IC50 (EGFR; EGFR inhibition IC50): 0.131 ± 0.009 µM; Percentage above Reference IC50 (potency relative to erlotinib) (EGFR): 64.122% |
| 41.9 ± 2.04 µg/mL (≈ 101 µM) | O=C(COc1ccc2c(COC(=O)c3ccccc3)cc(=O)oc2c1)c1ccccc1 [Compound 7, [2-Oxo-7-(2-oxo-2-phenylethoxy)-2H-chromen-4-yl]methyl benzoate] | 77.5 ± 1.94 µM | 32.1 ± 1.94 µg/mL | 83.43% | 71.93% | 62.508% | 52.7829% | 40.856% | diminished the activity | 56.7 ± 1.28 µM | 23.5 ± 1.28 µg/mL | 75.96% | 68.64% | 59.243% | 101 ± 2.04 µM | 78.3% | 71.5% | 59.2% | 53.7% | 45.1% | % viability (MDA-MB-231; 100ug (log conc. 2)): 38.991%; anti-proliferative activity against MDA-MB-231 (in words) (MDA-MB-231): poor anti-proliferative activity; IC50 (EGFR; [5]): 0.333 µM; IC50 (EGFR; EGFR inhibition IC50): 0.341 ± 0.019 µM; EGFR %inh (EGFR; conc 0.01 (unit not given)): 30%; EGFR %inh (EGFR; conc 0.1 (unit not given)): 42%; EGFR %inh (EGFR; conc 1 (unit not given)): 67%; EGFR %inh (EGFR; conc 10 (unit not given)): 89%; Percentage above Reference IC50 (potency relative to erlotinib) (EGFR): 24.633% |
| 12.4 ± 0.6 µg/mL (≈ 22.8 µM) | COc1cccc2c1C(=O)c1c(O)c3c(c(O)c1C2=O)C[C@@](O)(C(=O)CO)C[C@@H]3O[C@H]1C[C@H](N)[C@H](O)[C@H](C)O1 [Doxorubicin, reference compound] | 5.6 ± 0.18 µM | 3.04 ± 0.18 µg/mL | 62.95% | 52.16% | 46.435% | 38.2693% | 28.946% | – | 7.3 ± 0.22 µM | 3.98 ± 0.22 µg/mL | – | – | – | 22.8 ± 0.6 µM | 74% | 63.5% | 55.4% | 44.6% | 35.9% | % viability (MCF-7; MCF7, 0.4ug (log conc. -0.4089)): 62.9494%; % viability (MCF-7; MCF7, 1.6ug (log conc. 0.1931)): 52.1633%; % viability (MCF-7; MCF7, 6.25ug (log conc. 0.7959)): 46.4351%; % viability (MCF-7; MCF7, 100ug (log conc. 2)): 28.9458%; % viability (MDA-MB-231; 0.4ug (log conc. -0.41), listed as Dox): 63.56% and 63.5613%; % viability (MDA-MB-231; 1.6ug (log conc. 0.19), listed as Dox): 55.84% and 55.8373%; % viability (MDA-MB-231; 6.25ug (log conc. 0.8), listed as Dox): 46.58% and 46.5802%; % viability (MDA-MB-231; 25ug (log conc. 1.4)): 40.9788%; % viability (MDA-MB-231; 100ug (log conc. 2), listed as Dox): 29.599% and 29.5991%; % viability (MCF-10A; MCF10a cells, 0.4ug, listed as Dox): 73.9934%; % viability (MCF-10A; MCF10a cells, 1.6ug, listed as Dox): 63.4983%; % viability (MCF-10A; MCF10a cells, 6.25ug (6.3ug), listed as Dox): 55.4455%; % viability (MCF-10A; MCF10a cells, 100ug, listed as Dox): 35.9076%; IC50 (MCF-10A; listed as DOX): 12.4 µM |

| SMILES | IC50 at 48 h (in vitro; [4]) | IC50 (MCF-7; MCF7, read-out: MCF-7 IC50) | IC50 (MCF-7; [1]) | % viability (MCF-7; MCF7, 0.4ug) | % viability (MCF-7; MCF7, 1.6ug) | % viability (MCF-7; MCF7, 6.3ug) | % viability (MCF-7; MCF7, 25ug) | % viability (MCF-7; MCF7, 100ug) | anti-proliferative activity against MCF-7 (in words) (MCF-7) | IC50 (MDA-MB-231; [2]) | IC50 (MDA-MB-231; [3]) | % viability (MDA-MB-231; 0.4ug (log conc. -0.41)) | % viability (MDA-MB-231; 1.6ug (log conc. 0.19)) | % viability (MDA-MB-231; 6.25ug (log conc. 0.8)) | IC50 (MCF-10A) | viability at 48 h, 0.4 ug (in vitro; [4]) | viability at 48 h, 1.6 ug (in vitro; [4]) | viability at 48 h, 6.25 ug (in vitro; [4]) | viability at 48 h, 25 ug (in vitro; [4]) | viability at 48 h, 100 ug (in vitro; [4]) | other results |
| --- | --- | --- | --- | --- | --- | --- | --- | --- | --- | --- | --- | --- | --- | --- | --- | --- | --- | --- | --- | --- | --- |
| CC(=O)Oc1ccc2c(COC(=O)c3ccccc3)cc(=O)oc2c1 [Compound 13, (7-Acetoxy-2-oxo-2H-chromen-4-yl)methyl benzoate] | 166 ± 8.1 µg/mL (≈ 491 µM) | 111 ± 2.28 µM | 37.6 ± 2.28 µg/mL | 80.82% | 70.97% | 64.282% | 55.0733% | 40.88% | – | 30.7 ± 0.56 µM | 10.4 ± 0.56 µg/mL | 65.76% | 58.55% | 52.297% | 490 ± 8.1 µM | 89.7% | 81.1% | 73.6% | 63.3% | 52.2% | % viability (MDA-MB-231; 25ug (log conc. 1.4)): 46.9551%; % viability (MDA-MB-231; 100ug (log conc. 2)): 38.515%; IC50 (EGFR; [5]): 0.364 µM; IC50 (EGFR; EGFR inhibition IC50): 0.363 ± 0.02 µM; Percentage above Reference IC50 (potency relative to erlotinib) (EGFR): 23.14% |
| COc1ccccc1C(=O)OCc1cc(=O)oc2cc(OC(C)=O)ccc12 [Compound 15, (7-Acetoxy-2-oxo-2H-chromen-4-yl)methyl 2-methoxybenzoate] | 115 ± 5.62 µg/mL (≈ 312 µM) | 17.1 ± 0.38 µM | 6.3 ± 0.38 µg/mL | 67.97% | 58.26% | 50.063% | 42.623% | 31.337% | moderate anti-proliferative activity | 74.9 ± 1.52 µM | 27.9 ± 1.52 µg/mL | 76.72% | 65.9% | 56.927% | 312 ± 5.62 µM | 86% | 78.2% | 68.2% | 60.1% | 50.8% | % viability (MDA-MB-231; 25ug (log conc. 1.4)): 46.8873%; % viability (MDA-MB-231; 100ug (log conc. 2)): 37.745% |
